Assays:
[1] = test system: soybean cyst nematode (SCN); assay: SCN reproduction after application of enzyme or recombinant strain to soil; format: in vivo, Heterodera glycines; conditions: Table 33; for % Comparison to Control: first figure, water control = 100%
Description: To determine the efficacy of nematicidal enzymes applied to soil, a controlled environment trial was performed with 7-day old soybean plants (variety 2830E3) grown in pots. Enzymes were produced as described in Example 2. Prior to inoculation, 0.5 mL of neutral protease (SEQ ID NO: 127), esterase B (SEQ ID NO: 89), or chitinase 19F (SEQ ID NO: 182) free enzyme solution was applied to the soil around the base of each plant, or 0.5 mL of water was applied for the control (30 plants per treatment). Then, hatched SCN juveniles were applied to the soil around each plant as described in Example 2, and three weeks later, cysts per gram of root tissue was determined as described in Example 2. The data was analyzed as in Example 2 and appears in Tables 33 and 34.
To determine the efficacy of recombinant strains applied to soil, a controlled environment trial was performed as described in Example 18 above (Reduction of soybean cyst nematode reproduction by enzymes applied to soil), with the exception that a recombinant strain expressing neutral protease (SEQ ID NO: 127) was applied instead of a free enzyme solution. The recombinant strain was produced as in Example 3, and the treatment applied to soil as a whole cell broth.

[2] = test system: soybean cyst nematode (SCN, Heterodera glycines); assay: Soybean cyst nematode reproduction on soybean after seed treatment, controlled environment (cysts per gram of root tissue or per plant); format: in vivo
[3] = test system: Btk resistant Diamondback moth; assay: Diet-surface overlay (DSO) bioassay on Btk resistant Diamondback moth; format: in vivo, Plutella xylostella; conditions: number of individuals, n = 32, 7 days
Description: (§1) Diet-surface overlay bioassays are conducted with artificial diet mixes without antibiotics in 1.5 cm^2 cell bioassay trays(s). Artificial diets are commercially available from Southland Products Inc. Diets were prepared by dispersing 0.5 mL of molten diet to each 1.5 cm^2 cell. After solidification, 0.1 mL enzyme treatments were dispersed on top of diet in each cell and the tray was gently rocked in an orbital shaker to spread the liquid uniformly over the diet surface. Trays were placed under clean airflow until the surface of each cell was uniformly dried. One or two 16-cell sections were used per treatment (the number in larvae treated was 16 or 32).
(§2) One healthy first instar larva was placed into each treatment cell, each 16-cell section was covered with a re-sealable lid and incubated at 27° C. and light-dark period of 16:8 hrs. After 7 days, and according to the species, the number of individuals in the following developmental categories was recorded.
(§3) Diamondback moth (Plutella xylostella): Dead Larva (lack of movement), Larva Stage I (≤50% relative size), Larva Stage II (100% relative size, full size), Early Pupa (light green color), Late Pupa (light-dark brown color), and Adult.
(§4) Negative/untreated controls were treated with filtered water and positive controls were treated with lethal doses of Bacillus thuringiensis subsp. Kurstaki (Btk) spores at 1000 ppm.
However, both neutral proteases reduced the number of individuals reaching adult stage.
The effect of lipase (10× enzyme rate) and free lipases were tested on a Diamondback Moth Btk resistant strain. Free Lipases from Burkholderia cepacia (Bc) and Pseudomonas fluorescens (Pf) were tested along with Lipase (SEQ ID NO: 76) and the results are shown below in Table 45.

Meloidogyne incognita = assay: Root gall index of soybeans inoculated with Meloidogyne incognita after seed treatment (greenhouse); format: in vivo; conditions: for % Comparison to Control: first figure, base seed treatment control = 100%
Description: Nematicidal neutral protease (SEQ ID NO: 127) was produced by fermentation in Bacillus subtilis. The enzyme was cloned into Bacillus expression plasmid p1797 with isopropyl β-d-1-thiogalactopyranoside (IPTG)-inducible expression. The plasmid was transformed into B. subtilis, and this strain was grown in rich media until an optical density (OD) of 0.2-0.5 was reached. Then, enzyme expression was induced by addition of 1 mM IPTG. Following the culture harvest, cells were removed by filtration through a […] filter. Culture filtrate containing secreted protease was then used for seed treatment. Bacillus subtilis fermentation filtrate expressing neutral protease was mixed directly into a seed treatment slurry containing colorant and Peridiam® 1006 […] at a rate of 2 fl oz per unit of seed and coated onto Bossier variety soybean seed.
To investigate the effects of neutral protease on galling due to root knot nematode infestation, treated seeds were planted in soil in cone-tainers in a greenhouse. Seven days after planting, each cone-tainer was inoculated with 1250 eggs from the Dick Meloidogyne incognita population. Eight weeks post-inoculation, roots were excavated and washed. Root galling was visually rated on a gall index (GI) scale of 1-5 (1=<10% GI; 2=11-20%, 3=21-30%, 4=31-40%, 5=>40% GI). Fifteen plants were evaluated per treatment and their average root gall ratings were recorded.

[4] = test system: Diamondback moth (Plutella xylostella); assay: Diet-surface overlay (DSO) bioassay on Diamondback moth; format: in vivo; conditions: number of individuals, n = 16
Description: as §1, §2, §3, §4

With “Neutral protease (SEQ ID NO: 127): Bacillus sp. B16 neutral protease produced by fermentation in Bacillus subtilis; culture filtrate containing the secreted enzyme” the “% Comparison to Control (figure in parentheses)” value ([1]; change vs water control) was −32%, the “% Comparison to Control” value [1] was “reduced SCN reproduction” and the “% Comparison to Control” value ([1]; listed as Neutral protease free enzyme (SEQ ID NO: 127)) was 68%. For the same substance, the “Average cysts per g of root tissue” value ([1]; free enzyme 0.5 mL/plant to soil, soybean 2830E3, 3 weeks) was 35.7 cysts per g of root tissue, the “Average cysts per g of root tissue” value ([2]; Table 11, free enzyme seed treatment 2 fl. oz. per unit of seed (ILEVO 0.15 mg active ingredient per seed), soybean P18A98X, 3 weeks after inoculation) was 20.1 cysts per g of root tissue and the “Average cysts per g of root tissue” value ([2]; Table 14, seed treated with whole cell broth, soybean P18A98X) was 40.3 cysts per g of root tissue. For the same substance, the “% Comparison to Control (figure in parentheses)” value ([2]; Table 38, change vs base control, liquid 2 fl oz/unit, ILEVO) was −42%, the “Average cysts per g of root tissue” value ([2]; Table 38, liquid formulation 2 fl oz/unit, ILEVO positive control, soybean 2830E3) was 208.8 cysts per g of root tissue and the “Dead Larva” value ([3]; Table 42, proteases at 10x rate) was 4. The Adult ([3]; Table 42) was 0, the “Early Pupa” value ([3]; Table 42) was 6 and the “Larva Stage I” value ([3]; Table 42) was 0. The “Larva Stage II” value ([3]; Table 42) was 0, the “Late Pupa” value ([3]; Table 42) was 22 and the “% Comparison to Control (figure in parentheses)” value (Meloidogyne incognita; Table 26, change vs base control) was −26%. The “% Comparison to Control” value (Meloidogyne incognita; Table 26) was “reduction of average visual gall rating”, the “% Comparison to Control” value (Meloidogyne incognita; Table 26, listed as Neutral protease seed treatment (SEQ ID NO: 127)) was 74% and the “Average root gall rating” value (Meloidogyne incognita; gall index scale of 1-5, seed treatment 2 fl oz per unit of seed, Bossier soybean, 8 weeks post-inoculation, 15 plants) was 3.5. For the same substance, the “Dead Larva” value ([4]; Table 41, proteases, after 7 days, rate in U/mL diet column) was 2, the Adult ([4]; Table 41, 7 days) was 0 and the “Early Pupa” value ([4]; Table 41, 7 days) was 8. For the same substance, the “Larva Stage I” value ([4]; Table 41, 7 days) was 0, the “Larva Stage II” value ([4]; Table 41, 7 days) was 0 and the “Late Pupa” value ([4]; Table 41, 7 days) was 6.
